{"source": "patent US20240376099A1", "about": "“COMPOUNDS AND COMPOSITIONS AS INHIBITORS OF ENDOSOMAL TOLL-LIKE RECEPTORS” (Novartis AG, priority 2016, published 2024)", "note": "pIC50: −log10 of the molar value."}
{"target": "T1, TLR9 (Homo sapiens, UniProt Q9NR96)", "T1 construct": "Fresh blood was collected from normal human donors; endogenous in cells; host or cells: human PBMCs from fresh donor blood", "T1 sequence (Q9NR96 26-1032)": "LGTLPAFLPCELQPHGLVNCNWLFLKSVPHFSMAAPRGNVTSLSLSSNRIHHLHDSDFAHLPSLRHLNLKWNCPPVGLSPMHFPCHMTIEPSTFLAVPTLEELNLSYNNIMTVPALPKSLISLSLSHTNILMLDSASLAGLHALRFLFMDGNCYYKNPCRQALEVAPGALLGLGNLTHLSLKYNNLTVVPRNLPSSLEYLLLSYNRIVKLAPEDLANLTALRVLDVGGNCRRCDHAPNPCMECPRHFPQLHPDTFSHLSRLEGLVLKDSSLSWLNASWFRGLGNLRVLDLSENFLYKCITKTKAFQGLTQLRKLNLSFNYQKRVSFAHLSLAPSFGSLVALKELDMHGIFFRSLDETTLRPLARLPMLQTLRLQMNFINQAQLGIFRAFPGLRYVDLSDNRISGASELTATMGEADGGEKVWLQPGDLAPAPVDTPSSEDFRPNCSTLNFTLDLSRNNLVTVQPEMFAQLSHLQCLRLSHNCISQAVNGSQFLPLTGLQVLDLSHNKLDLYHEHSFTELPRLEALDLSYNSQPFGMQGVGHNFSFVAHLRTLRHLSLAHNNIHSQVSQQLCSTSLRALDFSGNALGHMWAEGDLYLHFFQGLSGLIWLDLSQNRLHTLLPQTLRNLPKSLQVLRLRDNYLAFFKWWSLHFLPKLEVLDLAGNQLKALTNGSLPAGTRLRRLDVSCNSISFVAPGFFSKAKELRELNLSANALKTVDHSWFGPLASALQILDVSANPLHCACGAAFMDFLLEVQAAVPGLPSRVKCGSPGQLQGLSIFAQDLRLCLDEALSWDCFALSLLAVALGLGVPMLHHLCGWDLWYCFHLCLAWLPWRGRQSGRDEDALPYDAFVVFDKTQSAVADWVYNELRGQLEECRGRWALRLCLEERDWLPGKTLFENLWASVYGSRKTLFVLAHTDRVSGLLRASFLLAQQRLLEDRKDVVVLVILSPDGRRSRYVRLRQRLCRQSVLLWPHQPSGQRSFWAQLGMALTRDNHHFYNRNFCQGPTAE", "assay": "huPBMC TLR9 Antagonist IFNα Assay", "assay_type": "cell-based", "conditions": "human PBMCs stimulated with ODN2216 0.3 μM, 14-16 hrs; IFNα2b AlphaLISA read-out", "summary_of_the_method": "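Human PBMCs from fresh donor blood (150,000 cells/well) stimulated 14–16 h at 37 °C with DOTAP-complexed ssRNA40 (final 1 μg/ml for TLR8, 10 μg/mL for TLR7) or ODN2216 (final 0.3 μM, TLR9), 0.25% DMSO, ten-point 1/3 compound dilutions. Supernatant IL-6 read by HTRF (TLR8); IFNα by IFNα2b AlphaLISA (TLR7/TLR9).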"}
{"smiles": "Cc1cc(N2CCc3c(c(C)nn3CC34CCC(N5CCN(C)C(=O)C5)(CC3)CC4)C2)c2cnn(C)c2n1", "note": "[Compound No. 104, 4-(4-((5-(1,6-dimethyl-1H-pyrazolo[3,4-b]pyridin-4-yl)-3-methyl-4,5,6,7-tetrahydro-1H-pyrazolo[4,3-c]pyridin-1-yl)methyl)bicyclo[2.2.2]octan-1-yl)-1-methylpiperazin-2-one]", "pIC50": "< 5.00"}
{"smiles": "Cc1cc(N2CCc3c(c(C)nn3CC34CCC(NC(=O)C5CNC5)(CC3)CC4)C2)c2cnn(C)c2n1", "note": "[compound 131, N-(4-((5-(1,6-dimethyl-1H-pyrazolo[3,4-b]pyridin-4-yl)-3-methyl-4,5,6,7-tetrahydro-1H-pyrazolo[4,3-c]pyridin-1-yl)methyl)bicyclo[2.2.2]octan-1-yl)azetidine-3-carboxamide]", "pIC50": "< 5.00"}
{"smiles": "Cc1nn(CC23CCC(N)(CC2)CC3)c2c1CN(c1ccnc3[nH]ncc13)CC2", "note": "[compound 41, 4-((3-methyl-5-(1H-pyrazolo[3,4-b]pyridin-4-yl)-4,5,6,7-tetrahydro-1H-pyrazolo[4,3-c]pyridin-1-yl)methyl)bicyclo[2.2.2]octan-1-amine]", "pIC50": 6.09}
{"smiles": "CNCCC(=O)NC12CCC(Cn3nc(C)c4c3CCN(c3cc(C)nc5c3cnn5C)C4)(CC1)CC2", "note": "[compound 142, N-(4-((5-(1,6-dimethyl-1H-pyrazolo[3,4-b]pyridin-4-yl)-3-methyl-4,5,6,7-tetrahydro-1H-pyrazolo[4,3-c]pyridin-1-yl)methyl)bicyclo[2.2.2]octan-1-yl)-3-(methylamino)propanamide]", "pIC50": "< 5.18"}
{"smiles": "Cc1nc(N2CCc3c(c(C)nn3CC34CCC(NC(=O)[C@@H]5COCCN5)(CC3)CC4)C2)c2c(n1)c(C)nn2C", "note": "[compound 33, (S)-N-(4-((3-methyl-5-(1,3,5-trimethyl-1H-pyrazolo[4,3-d]pyrimidin-7-yl)-4,5,6,7-tetrahydro-1H-pyrazolo[4,3-c]pyridin-1-yl)methyl)bicyclo[2.2.2]octan-1-yl)morpholine-3-carboxamide]", "pIC50": "< 5.00"}
{"smiles": "CCNCC(=O)NC12CCC(Cn3nc(C)c4c3CCN(c3cc(C)nc5cn[nH]c35)C4)(CC1)CC2", "note": "[compound 124, 2-(ethylamino)-N-(4-((3-methyl-5-(5-methyl-1H-pyrazolo[4,3-b]pyridin-7-yl)-4,5,6,7-tetrahydro-1H-pyrazolo[4,3-c]pyridin-1-yl)methyl)bicyclo[2.2.2]octan-1-yl)acetamide]", "pIC50": "< 5.00"}
{"smiles": "Cc1nc(N2CCc3c(c(C)nn3CC34CCC(N5CCOCC5)(CC3)CC4)C2)c2c(C)noc2n1", "note": "[compound 37, 3,6-dimethyl-4-(3-methyl-1-((4-morpholinobicyclo[2.2.2]octan-1-yl)methyl)-6,7-dihydro-1H-pyrazolo[4,3-c]pyridin-5(4H)-yl)isoxazolo[5,4-d]pyrimidine]", "pIC50": "< 5.00"}
{"smiles": "Cc1c2c(nn1CC13CCC(N)(CC1)CC3)CCN(c1ccnc3[nH]ncc13)C2", "note": "[compound 42, 4-((3-methyl-5-(1H-pyrazolo[3,4-b]pyridin-4-yl)-4,5,6,7-tetrahydro-2H-pyrazolo[4,3-c]pyridin-2-yl)methyl)bicyclo[2.2.2]octan-1-amine]", "pIC50": 6.33}
{"smiles": "Cc1cc(N2CCc3c(c(C)nn3CC34CCC(N5CCO[C@@H](C)C5)(CC3)CC4)C2)c2cnn(C)c2n1", "note": "[compound 109, (S)-4-(4-((5-(1,6-dimethyl-1H-pyrazolo[3,4-b]pyridin-4-yl)-3-methyl-4,5,6,7-tetrahydro-1H-pyrazolo[4,3-c]pyridin-1-yl)methyl)bicyclo[2.2.2]octan-1-yl)-2-methylmorpholine]", "pIC50": 6.29}
